# Assay results as given in US20040043903A1, “2-Aryl-5-trifluoromethylpyridines” (priority 2000, published 2004).
# Tests used:
# Experiment in all cases: post-emergence herbicidal action, greenhouse experiments
# BRAPL = type: in vivo, alexandergrass
# Excerpt: (§1) The culture containers used were plastic pots with loamy sand with approximately 3.0% humus as substrate. The seeds of the test plants were sown separately for each species.
# (§2) For the purposes of the post-emergence treatment, the test plants were first grown to a height of 3 to 15 cm, depending on the growth habit, and only then treated with the active ingredients which were suspended or emulsified in water. To this end, the test plants were either sown directly and grown on in the same containers, or else they were first grown separately as seedlings and then transplanted into the experimental containers a few days prior to treatment. The application rate for the post-emergence treatment was 31.3, 15.6, 7.8 and/or 3.9 g of a.s./ha.
# (§3) The plants were kept at temperatures of 10-25° C. or 20-35° C., depending on the species. The experimental period extended over 2 to 4 weeks. During this time, the plants were tended, and their response to the individual regimes were evaluated.
# (§4) For the evaluation, a scale of 0 to 100 was used. 100 means no emergence of the plants, or complete destruction of at least the aerial parts, and 0 means no damage or normal course of growth.
# (§5) The plants used in the greenhouse experiments consisted of the following species: […]
# SETFA = type: in vivo, giant foxtail; conditions: for Harmful plant/action (post-emergence herbicidal action): scale 0 to 100
# Excerpt: as §1
# as §2, with “The application rate for the post-emergence treatment was 31.3, 15.6, 7.8 and/or 3.9 g of a.s./ha.” left out
# as §3, §4, §5
# BIDPI = type: in vivo, hairy beggarticks; conditions: for Harmful plant/action (post-emergence herbicidal action): scale 0 to 100
# Excerpt: as §1
# as §2, with “The application rate for the post-emergence treatment was 31.3, 15.6, 7.8 and/or 3.9 g of a.s./ha.” left out
# as §3, §4, §5
# CHEAL = type: in vivo, lambsquarters; conditions: for Harmful plant/action (post-emergence herbicidal action): scale 0 to 100
# Excerpt: as §1, §2, §3, §4, §5
# ECHCG = type: in vivo, barnyardgrass
# Excerpt: as §1, §2, §3, §4, §5
# [1] = 7.8 and 3.9 g of a.s./ha, compared with Comparative Example VC
# [2] = 31.3 and 15.6 g of a.s./ha, compared with Comparative Example VA
# [3] = application rate 15.6 g/ha a.s.
# [4] = application rate 31.3 g/ha a.s.
# [5] = 7.8 and 3.9 g of a.s./ha, compared with Comparative Example VB
smiles,measurement,setting,value
"CCc1nc2c(Cl)cc(F)c(-c3ncc(C(F)(F)F)c(C)c3Cl)c2o1 [ICe.3, 4-Chloro-7-[3-chloro-4-methyl-5-(trifluoromethyl)-2-pyridinyl]-2-ethyl-6-fluoro-1,3-benzoxazole]",action against the harmful plant compared with Comparative Example,BRAPL; [1],considerably better action
same,"post-emergence herbicidal action, BRAPL",BRAPL; application rate 3.9 g/ha a.s.,80
same,"post-emergence herbicidal action, BRAPL",BRAPL; application rate 7.8 g/ha a.s.,90
same,action against the harmful plant compared with Comparative Example,SETFA; [1],considerably better action
same,"post-emergence herbicidal action, SETFA",SETFA; application rate 3.9 g/ha a.s.,100
same,"post-emergence herbicidal action, SETFA",SETFA; application rate 7.8 g/ha a.s.,100
same,action against the harmful plant compared with Comparative Example,BIDPI; [1],considerably better action
same,"post-emergence herbicidal action, BIDPI",BIDPI; application rate 3.9 g/ha a.s.,100
same,"post-emergence herbicidal action, BIDPI",BIDPI; application rate 7.8 g/ha a.s.,100
"C#CCN1C(=O)COc2cc(F)c(-c3ncc(C(F)(F)F)cc3Cl)cc21 [VD, reference compound]","post-emergence herbicidal action, SETFA",SETFA; application rate 1.9 g/ha a.s.,60
same,"post-emergence herbicidal action, SETFA",SETFA; application rate 3.9 g/ha a.s.,90
same,"post-emergence herbicidal action, BIDPI",BIDPI; application rate 1.9 g/ha a.s.,50
same,"post-emergence herbicidal action, BIDPI",BIDPI; application rate 3.9 g/ha a.s.,55
"COc1cc(-c2ncc(C(F)(F)F)c(C)c2Cl)c(F)cc1Cl [IAa.3, 2-(2-fluoro-4-chloro-5-methoxyphenyl-1-yl)-3-chloro-4-methyl-5-trifluoromethylpyridine]",action against the harmful plant compared with Comparative Example,CHEAL; [2],considerably better action
same,Harmful plant/action (post-emergence herbicidal action),CHEAL; [3],100
same,Harmful plant/action (post-emergence herbicidal action),CHEAL; [4],100
same,action against the harmful plant compared with Comparative Example,SETFA; [2],considerably better action
same,Harmful plant/action (post-emergence herbicidal action),SETFA; [3],95
same,Harmful plant/action (post-emergence herbicidal action),SETFA; [4],100
same,action against the harmful plant compared with Comparative Example,BIDPI; [2],considerably better action
same,Harmful plant/action (post-emergence herbicidal action),BIDPI; [3],60
same,Harmful plant/action (post-emergence herbicidal action),BIDPI; [4],60
same,action against the harmful plant compared with Comparative Example,ECHCG; [2],considerably better action
same,Harmful plant/action (post-emergence herbicidal action),"ECHCG; application rate 15.6 g/ha a.s., scale 0 to 100",90
same,Harmful plant/action (post-emergence herbicidal action),"ECHCG; application rate 31.3 g/ha a.s., scale 0 to 100 (100 = complete destruction, 0 = no damage)",100
"CCc1nc2c(Cl)cc(F)c(-c3ncc(C(F)(F)F)cc3Cl)c2o1 [VC, reference compound]","post-emergence herbicidal action, BRAPL",BRAPL; application rate 3.9 g/ha a.s.,40
same,"post-emergence herbicidal action, BRAPL",BRAPL; application rate 7.8 g/ha a.s.,55
same,"post-emergence herbicidal action, SETFA",SETFA; application rate 3.9 g/ha a.s.,90
same,"post-emergence herbicidal action, SETFA",SETFA; application rate 7.8 g/ha a.s.,95
same,"post-emergence herbicidal action, BIDPI",BIDPI; application rate 3.9 g/ha a.s.,50
same,"post-emergence herbicidal action, BIDPI",BIDPI; application rate 7.8 g/ha a.s.,55
"C#CCOc1cc(-c2ncc(C(F)(F)F)c(C)c2Cl)c(F)cc1Cl [IAa.10, 2-(2-Fluoro-4-chloro-5-propargyloxyphenyl)-3-chloro-4-methyl-5-trifluoromethylpyridine]",Harmful plant/action (post-emergence herbicidal action),CHEAL; application rate 3.9 g/ha a.s.,100
same,Harmful plant/action (post-emergence herbicidal action),CHEAL; application rate 7.8 g/ha a.s.,100
same,action against the harmful plant compared with Comparative Example,SETFA; [5],considerably better action
same,Harmful plant/action (post-emergence herbicidal action),SETFA; application rate 3.9 g/ha a.s.,98
same,Harmful plant/action (post-emergence herbicidal action),SETFA; application rate 7.8 g/ha a.s.,98
same,action against the harmful plant compared with Comparative Example,BIDPI; [5],considerably better action
same,Harmful plant/action (post-emergence herbicidal action),BIDPI; application rate 3.9 g/ha a.s.,100
same,Harmful plant/action (post-emergence herbicidal action),BIDPI; application rate 7.8 g/ha a.s.,100
same,action against the harmful plant compared with Comparative Example,ECHCG; [5],considerably better action
same,Harmful plant/action (post-emergence herbicidal action),"ECHCG; application rate 3.9 g/ha a.s., scale 0 to 100",70
same,Harmful plant/action (post-emergence herbicidal action),"ECHCG; application rate 7.8 g/ha a.s., scale 0 to 100",85
